In ChEMBL document CHEMBL1137384, “Benzopyrans are selective estrogen receptor beta agonists with novel activity in models of benign prostatic hyperplasia” (J Med Chem, 2006) one finds Activity data, which are given here for 2 compounds.

What all share (assay type): functional, organism-based
For test [1], the system named is Mus musculus. The experiment in a line: Effect on dihydro testosterone level in CD1 mouse plasma at 0.1 mg/kg, po after 7 days. Further details: dose 0.1 mg/kg.
In test [2] the test system is Mus musculus. Briefly: Effect on testes weight in po dosed CD1 mouse after 7 days. As to conditions: Testis.
In test [3] the test system is Mus musculus. Briefly: Effect on seminal vesicle weight in po dosed CD1 mouse after 7 days.
Test [4] concerns Mus musculus. Briefly: Ventral prostate involution in CD1 mouse at 30 mg/kg, po after 7 days. Further details: dose 30 mg/kg. As to conditions: Prostate gland.
The subject of test [5] is Mus musculus. The experiment in a line: Effect on ventral prostate weight in po dosed CD1 mouse after 7 days. Conditions: Prostate gland.
Test [6] relates to Mus musculus. Briefly: Effect on testosterone level in CD1 mouse plasma at 0.1 mg/kg, po after 7 days. More on the design: dose 0.1 mg/kg.

The source made the active and inactive calls. No cut-off for these calls is given here.

As for `Oc1ccc([C@@H]2Oc3ccc(O)cc3[C@@H]3CCC[C@@H]32)cc1`, the result in test [1], in test [2], in test [3] and in test [6] was inactive. Also, in test [4], the result was Active. Also, in test [5], the Activity entry is “Dose-dependent effect”.

As to `CC(C)(C)NC(=O)[C@H]1CC[C@H]2[C@@H]3CC[C@H]4NC(=O)C=C[C@]4(C)[C@H]3CC[C@]12C`, the result in test [4] was Active.
